Data published in patent US9462805B2, “Herbicide-resistant proteins, encoding genes, and uses thereof” (Beijing Dabeinong Technology Group Co., Ltd., priority 2012, dated 2016).

Assays:
[1] = test system: Arabidopsis T1 plants transformed with 24DT02 nucleotide sequence; experiment: Herbicide resistance effect test of transgenic Arabidopsis T1 plants (24DT02); assay type: in vivo, Arabidopsis thaliana; conditions: number of T1 plants, genotype 24DT02; for Highly resistant: 560 g ae/ha (1-fold field concentration) sprayed, growth consistent with blank solvent 7 days after spraying; for Moderately resistant / Non-resistant / Lowly resistant: 560 g ae/ha sprayed; for Moderately resistant: curly rosette leaves 7 days after spraying; for Non-resistant: dead 14 days after spraying; for Lowly resistant: incapable of bolting 14 days after spraying
Protocol: (§1) On 7 days after planting (DAP) and 11 DAP respectively, the T1 plants (cotyledon stage and 2-4 leaves stage, respectively) were sprayed with 0.2% of Liberty herbicide solution (200 g ai/L glufosinate-ammonium) using DeVilbiss compressed air nozzle at a spraying volume of 10 ml/disc (703 L/ha) so as to provide effective amount of glufosinate-ammonium (280 g ai/ha) for each application. The survival plants (actively growing plants) were verified 4 to 7 days after the last spraying and transferred into the square pot (7 cm×7 cm) made from vermiculite and horses dung (3-5 plants per pot). The transplanted plants were covered with moisturizing mask for 3-4 days and placed in culture room at 22° C. or directly into the greenhouse as described above. Then the mask was removed and the plants were planted in greenhouse (22±5° C., 50±30% RH, 14 hours of lighting: 10 hours of darkness, minimum […] natural light+complement light) at least one day before testing the ability of 24DT02 to provide the resistance to phenoxy auxin herbicide.
(§2) 24DT02 gene was used to transform Arabidopsis for the first time. At first, T1 transformants were selected from the background of un-transformed seeds, using glufosinate-ammonium selection scheme. About 40000 T1 seeds were screened among which 195 strains of T1 generation positive transformants (PAT gene) were identified, i.e. the transformation efficiency was about 0.5%. Herbicide resistance effect tests to 2,4-D dimethyl ammonium salt and agroxone of Arabidopsis T1 plants transformed with 24DT02 nucleotide sequence, substituted 24DT02 nucleotide sequence, truncated 24DT02 nucleotide sequence, added 24DT02 nucleotide sequence, control nucleotide sequence respectively and wild-type Arabidopsis plants were performed after 18 days of planting.
(§3) Arabidopsis T1 plants transformed with 24DT02 nucleotide sequence, substituted 24DT02 nucleotide sequence, truncated 24DT02 nucleotide sequence, added 24DT02 nucleotide sequence and control nucleotide sequence respectively and wild-type Arabidopsis plants were sprayed with 2,4-D dimethyl ammonium salt (560 g ae/ha, 1-fold concentration in field), agroxone (560 g ae/ha, 1-fold concentration in field) and blank solvent (water). Resistance conditions of the plants were counted 7 days and 14 days after spraying. Plants with growth conditions consistent with blank solvent (water) 7 days after spaying were classified as highly resistant plants; Plants with curly rosette leaves 7 days after spaying were classified as moderately resistant plants; Plants incapable of bolting 14 days after spaying were classified as low-resistant plants and the dead plants 14 days after spaying were classified as non-resistant plants. Because each Arabidopsis T1 plant was an independent transformation event, significant differences of individual T1 responses were expected under a given dose.

[2] = test system: Arabidopsis T1 plants transformed with control nucleotide sequence; experiment: Herbicide resistance effect test of Arabidopsis T1 plants (control sequence); assay type: in vivo, Arabidopsis thaliana; conditions: number of T1 plants, 560 g ae/ha sprayed; for Highly resistant: genotype Control (control sequence), growth consistent with blank solvent 7 days after spraying; for Moderately resistant / Non-resistant / Lowly resistant: genotype Control; for Moderately resistant: curly rosette leaves 7 days after spraying; for Non-resistant: dead 14 days after spraying; for Lowly resistant: incapable of bolting 14 days after spraying
Protocol: as §1, §2, §3

[3] = test system: corn plants transfected with 24DT02 nucleotide sequence; experiment: Herbicide-resistance effect test of transgenic corn plants (24DT02; strains S1-S3); assay type: in vivo, maize; conditions: 21 days after spraying; for Normal development of prop roots / Abnormal development of prop roots: number of plants
Protocol: (§4) Herbicide resistance effects tests to 2,4-D dimethyl ammonium salt and agroxone of maize plants containing 24DT02 nucleotide sequence, 24DT02 substituted nucleotide sequence, 24DT02 truncated nucleotide sequence, 24DT02 added nucleotide sequence, control nucleotide sequence respectively and wild type maize plants (stages V3-V4) were performed respectively.
(§5) Maize plants containing 24DT02 nucleotide sequence, 24DT02 substituted nucleotide sequence, 24DT02 truncated nucleotide sequence, 24DT02 added nucleotide sequence, control nucleotide sequence respectively and wild type maize plants were taken and spayed with 2,4-D dimethyl ammonium salt (8960 g ae/ha, 16-folds concentration in field), agroxone (8960 g ae/ha, 16-folds concentration in field) and blank solvent (water) respectively. Prop root development was counted 21 days after spaying. Three strains (S1, S2, and S3) of corn plants transfected with 24DT02 nucleotide sequence, two strains (S4 and S5) of corn plants transfected with 24DT02 substituted nucleotide sequence, two strains (S6 and S7) of corn plants transfected with 24DT02 truncated nucleotide sequence, two strains (S8 and S9) of corn plants transfected with 24DT02 added nucleotide sequence, two strains (S10 and S11) of corn plants transfected with control nucleotide sequence and 1 strain of wild type (CK) corn were selected and 10-15 plants from each stain were tested.

[4] = test system: corn plants transfected with 24DT02 substituted nucleotide sequence; experiment: Herbicide-resistance effect test of transgenic corn plants (substituted 24DT02; strains S4, S5); assay type: in vivo, maize; conditions: 8960 g ae/ha sprayed, 21 days after spraying; for Abnormal development of prop roots / Normal development of prop roots: number of plants
Protocol: as §4, §5

[5] = test system: Arabidopsis T1 plants transformed with added 24DT02 nucleotide sequence; experiment: Herbicide resistance effect test of transgenic Arabidopsis T1 plants (24DT02-a); assay type: in vivo, Arabidopsis thaliana; conditions: number of T1 plants, genotype 24DT02-a, 560 g ae/ha sprayed; for Moderately resistant: curly rosette leaves 7 days after spraying; for Non-resistant: dead 14 days after spraying; for Highly resistant: growth consistent with blank solvent 7 days after spraying; for Lowly resistant: incapable of bolting 14 days after spraying
Protocol: as §1, §2, §3

[6] = test system: corn plants transfected with 24DT02 truncated nucleotide sequence; experiment: Herbicide-resistance effect test of transgenic corn plants (truncated 24DT02; strains S6, S7); assay type: in vivo, maize; conditions: 8960 g ae/ha sprayed, 21 days after spraying; for Abnormal development of prop roots / Normal development of prop roots: number of plants
Protocol: as §4, §5

[7] = test system: Arabidopsis; experiment: Effective dose distinguishing sensitive from resistant Arabidopsis; assay type: in vivo
[8] = test system: wild type maize plants; experiment: Herbicide-resistance effect test of wild type (CK) corn; assay type: in vivo; conditions: 8960 g ae/ha sprayed, 21 days after spraying; for Abnormal development of prop roots / Normal development of prop roots: number of plants
Protocol: as §4, §5

[9] = corn strain S1 (24DT02), 8960 g ae/ha sprayed
[10] = corn strain S2 (24DT02), 8960 g ae/ha sprayed
[11] = corn strain S3 (24DT02), 8960 g ae/ha sprayed
[12] = corn strain S1 (24DT02), 8960 g ae/ha (16-fold field concentration) sprayed at V3-V4
[13] = corn strain S4 (substituted 24DT02)
[14] = corn strain S5 (substituted 24DT02)
[15] = corn strain S6 (truncated 24DT02)
[16] = corn strain S7 (truncated 24DT02)

Row | SMILES | Highly resistant [1] | Moderately resistant [1] | Non-resistant [1] | Lowly resistant [1] | Highly resistant [2] | Moderately resistant [2] | Non-resistant [2] | Lowly resistant [2] | Ratio of the normally developed prop roots [3, 9] | Ratio of the normally developed prop roots [3, 10] | Ratio of the normally developed prop roots [3, 11] | Normal development of prop roots [3, 12] | Abnormal development of prop roots [3, 9] | Abnormal development of prop roots [3, 10] | Normal development of prop roots [3, 10] | Abnormal development of prop roots [3, 11] | Normal development of prop roots [3, 11] | Ratio of the normally developed prop roots [4, 13] | Ratio of the normally developed prop roots [4, 14] | Abnormal development of prop roots [4, 13] | further results
1 | Cc1cc(Cl)ccc1OCC(=O)O [agroxone] | 8 | 6 | 4 | 2 | 0 | 0 | 17 | 0 | 87.50% | 100.00% | 92.31% | 14 | 2 | 0 | 12 | 1 | 12 | 81.25% | 93.33% | 3 | Normal development of prop roots [4, 13]: 13; Abnormal development of prop roots [4, 14]: 1; Normal development of prop roots [4, 14]: 14; Moderately resistant [5]: 5; Non-resistant [5]: 3; Highly resistant [5]: 8; Lowly resistant [5]: 1; Ratio of the normally developed prop roots [6, 15]: 87.50%; Ratio of the normally developed prop roots [6, 16]: 86.67%; Abnormal development of prop roots [6, 15]: 2; Normal development of prop roots [6, 15]: 14; Abnormal development of prop roots [6, 16]: 2; Normal development of prop roots [6, 16]: 13; effective dose to distinguish the sensitive plants from plants with average resistance [7]: 50 g ae/ha; Ratio of the normally developed prop roots [8]: 0%; Abnormal development of prop roots [8]: 16; Normal development of prop roots [8]: 0
2 | CNC.O=C(O)COc1ccc(Cl)cc1Cl [2,4-D dimethyl ammonium salt] | 9 | 4 | 5 | 0 | 0 | 0 | 18 | 0 | 81.25% | 91.67% | 85.71% | 13 | 3 | 1 | 11 | 2 | 12 | 87.50% | 100.00% | 2 | Normal development of prop roots [4, 13]: 14; Abnormal development of prop roots [4, 14]: 0; Normal development of prop roots [4, 14]: 15; Moderately resistant [5]: 3; Non-resistant [5]: 3; Highly resistant [5]: 10; Lowly resistant [5]: 2; Ratio of the normally developed prop roots [6, 15]: 86.67%; Ratio of the normally developed prop roots [6, 16]: 92.86%; Abnormal development of prop roots [6, 15]: 2; Normal development of prop roots [6, 15]: 13; Abnormal development of prop roots [6, 16]: 1; Normal development of prop roots [6, 16]: 13; Ratio of the normally developed prop roots [8]: 0%; Abnormal development of prop roots [8]: 16; Normal development of prop roots [8]: 0
